Data from patent US20260272888A1, “WOUND TREATMENT COMPOSITION” (OTSUKA PHARMACEUTICAL CO., LTD., priority 2022, published 2026).

What was measured:
[1] = test system: scratch model; conditions: NPL 4; cited from earlier work
[2] = test system: human keratinocytes; conditions: NPL 4; cited from earlier work
[3] = test system: db/db mice; assay: wound model using diabetic (db/db) mouse, circular defect wounds of the back skin; assay type: in vivo; conditions: for healing promoting action as compared with the vehicle administration group (area of defect portions): ointment applied to defect wounds once daily for 10 days, compound A groups 1%, 2%, p<0.01 for compound A, N=6; for course of the area of the defect portions (start of healing): ointment once daily for 10 days, compound A 1%, 2% groups, crisaborole increase on second day in the 2% group, vehicle decreased from the fourth day
Method: The compound A or crisaborole was administered to db/db mice, which are spontaneously diabetic models, for 10 days, and the influence on wound healing was examined by analyzing the wound area.
Before start of the test, the db/db mice were grouped using the HbA1c blood concentration as an index, and shaved from the back to the abdomen. On the test start day, the back skin was punched using a biopsy punch (φ6 mm) under isoflurane anesthesia, and thus two circular defect wounds were prepared. The defect portions were photographed, and then an ointment preparation (vehicle [30% medium chain fatty acid triglyceride-containing white petrolatum], compound A or crisaborole) as a test substance was applied to the defect portions and covered with a dressing (Tegaderm, 3M). After the day following the preparation of the defect wounds, removal of the dressing, photographing of the defect portions (once every two days), administration of the test substance, and covering with a dressing were repeated (once daily for 10 days).

[4] = test system: normal human corneal epithelial cell (HCEC-2); assay: scratch assay of corneal epithelial cells with compound solution or conditioned medium from keratocytes; assay type: cell-based; conditions: HCEC-2 scratch wound, conditioned medium from normal human keratocytes cultured 24 hours with compound, 20 hours culture
Method: The influence of the compound A on corneal epithelial cells via a keratocyte was evaluated. As the corneal epithelial cell and the keratocyte used in the evaluation system, a normal human corneal epithelial cell (HCEC-2, Kurabo Industries Ltd.) and a normal human keratocyte (EK, Cosmo Bio Co., Ltd.) were used.
Keratocytes (2×10^5 cells/mL) suspended in a fibroblast culture medium (Fibroblast Medium, Cosmo Bio Co., Ltd.) were seeded at 1 mL/well in a 12 well plate coated with poly-L-lysine, and cultured overnight. After removal of the culture medium and washing with normal human corneal epithelial cell basal medium (OcuLife BM, Kurabo Industries Ltd.), the compound solution was added. As the compound solution, a solution was used that was prepared by mixing dimethyl sulfoxide or the compound A dissolved in dimethyl sulfoxide with OcuLife BM (the final concentration of dimethyl sulfoxide was 0.1% [v/v]). After completion of the culture for 24 hours, the conditioned medium was collected.
Corneal epithelial cells (6×10^5 cells/mL) suspended in OcuLife BM were seeded at 100 μL/well in ImageLock 96-well Plate (Sartorius AG) coated with type I collagen, and cultured for 4 hours. Each well was scratched using a Wound Maker (trademark) tool (Sartorius AG) to prepare an initial scratch wound area in which no cells were present. […]

[5] = test system: SD rat; assay: rat oral ulcer model induced by cauterization; assay type: in vivo; conditions: for oral ulcer area on Day 8: 1 mass % ointment 0.05 mL twice a day for 5 days from Day 3, Mean±S.E., n=6, vehicle 20.4±2.3 mm^2; for reduction in the oral ulcer area as compared with the vehicle administration group: 1 mass % ointment twice a day for 5 days, Day 8, n=6, t-test (compound A p<0.05; crisaborole n.s.)
Excerpt: Using a male rat (SD rat), an oral ulcer was initiated by cauterization as follows. That is, conventional rats were anesthetized by isoflurane inhalation anesthesia and then placed on their back, and while the upper jaw and the lower jaw of each rat were opened using a rib retractor to take a view, a monopolar having a tip diameter of […] was applied to the central portion of the left oral mucosa, and the portion was cauterized in a circular shape (diameter: 3 to 4 mm) for about 10 to 20 seconds at a set output of 20 to induce an oral ulcer. After the cauterization, the rat was returned to a breeding cage and naturally awakened.
The day of oral ulcer induction was defined as the start day (Day 0). Two days after the oral ulcer induction (Day 2), the rats were grouped using a stratified random sampling method based on the body weight. From 3 days after the initiation of an oral ulcer by cauterization (Day 3), an ointment preparation containing 1 mass % of a test substance or an ointment base alone was orally administered at a dose of 0.05 mL twice a day (around 8:00 and 16:00) for 5 days. (As the compound A 1%, Moizerto (registered trademark) ointment 1% was used. The crisaborole 1% was prepared using a formula in which Moizerto (registered trademark) ointment 1% as the compound A was replaced by crisaborole.) Specifically, a rat anesthetized by isoflurane inhalation was laid down in a left side position, and the ointment preparation was administered to the left cheek where an ulcer was prepared in a state where the oral cavity was opened using tweezers or a rib retractor.

[6] = test system: SD rat; assay: rat corneal epithelial defect (corneal wound) model; assay type: in vivo; conditions: for wound area healing rate on Day 2: SD rat corneal epithelial defect, 1% ointment to the eye four times a day, n=5; for healing of the corneal defect wound as compared with the vehicle administration group: n=5, t-test (compound A p<0.05; crisaborole n.s.)
Excerpt: Using a male rat (SD rat), a corneal wound was induced as follows. On the day before the start of the test, rats were grouped using a stratified random sampling method based on the body weight. Under isoflurane anesthesia, each conventional rat was anesthetized with a Benoxil ophthalmic solution to the surface of the eye, and then a nonwoven fabric (3 mm in diameter) with 1-heptanol immersed was placed on the central portion of the cornea and allowed to stand for 30 seconds. Thereafter, the surface of the eye was washed with physiological saline, and the corneal epithelium was scratched with a cotton swab and thus carefully peeled to prepare a corneal defect. A 0.5% methylene blue solution was instilled into the eye, and the corneal epithelial defect portion was washed with physiological saline and then photographed, and then an ointment preparation (base alone, 1% compound A-containing ointment, or 1% crisaborole-containing ointment) as a test substance was administered to the eye four times a day (around 8:00, 11:00, 14:00, and 17:00) for three days. After the day following the preparation of the defect wound, photographing of the defect portion and administration of the test substance were repeated.

[7] = test system: normal human epidermal keratinocyte (NHEK); assay: scratch assay of epidermic cells with compound solution or conditioned medium from skin fibroblasts; assay type: cell-based; conditions: conditioned medium from normal human dermal fibroblasts cultured 24 hours with compound, 18 hours culture
Method: The influence of the compound A on epidermic cells via a skin fibroblast was evaluated. As the epidermic cell and the skin fibroblast used in the evaluation system, a normal human epidermal keratinocyte (NHEK, Kurabo Industries Ltd.) and a normal human dermal fibroblast (NEDF, Kurabo Industries Ltd.) were used. As a reference compound, dexamethasone, which is an anti-inflammatory drug, was used.
Skin fibroblasts (1×10^5 cells/mL) suspended in Dulbecco's Modified Eagle Medium (DMEM) containing 10% (v/v) fetal bovine serum (FBS) were seeded at 1 mL/well in a 12 well plate coated with type I collagen, and cultured for 48 hours. After removal of the culture medium and washing with phosphate buffered saline (PBS), the compound solution was added. As the compound solution, a solution was used that was prepared by mixing dimethyl sulfoxide or a compound (the compound A or dexamethasone) dissolved in dimethyl sulfoxide with a normal human epidermal keratinocyte basal medium (HuMedia-KB2, Kurabo Industries Ltd.) (the final concentration of dimethyl sulfoxide was 0.1% [v/v]). After completion of the culture for 24 hours, the conditioned medium was collected.
Epidermic cells (6×10^5 cells/mL) suspended in HuMedia-KB2 were seeded at 100 μL/well in ImageLock 96-well Plate (Sartorius AG) coated with type I collagen, and cultured for 4 hours. […]

[8] = SD rat, 1% ointment four times a day

Which results are given for `CS(=O)(=O)Nc1ccc(C(=O)O[C@@H](Cc2c(Cl)c[n+]([O-])cc2Cl)c2ccc(OC(F)F)c(OCC3CC3)c2)cc1OCC1CC1` [CHF6001]?
re-epithelialization in a scratch model after treatment [1]: re-epithelialization is decreased; growth of human keratinocytes [2]: suppresses growth of human keratinocytes

With `CCOc1ccccc1C(=O)NCc1coc(-c2ccc(OC(F)F)c(OC(C)C)c2)n1` [compound A, N-({2-[4-(difluoromethoxy)-3-(propan-2-yloxy)phenyl]-1,3-oxazol-4-yl}methyl)-2-ethoxybenzamide] as the compound, how does the “healing promoting action as compared with the vehicle administration group (area of defect portions)” value [3] read?
The value was “a healing promoting action was confirmed”.

And the “course of the area of the defect portions (start of healing)” value [3]?
The value was “rapidly decreased from the second day”.

And the “migration of the corneal epithelial cells (wound confluence)” value [4]?
Its value is “promoted migration of the corneal epithelial cells via the keratocytes”.

What about the “oral ulcer area on Day 8” value [5] of the same compound?
The value was 13.1±1.3 mm^2.

What about the “reduction in the oral ulcer area as compared with the vehicle administration group” value [5] of the same compound?
The value was “significant reduction in the oral ulcer area was observed”.

What about the “wound area healing rate on Day 2” value [6] of the same compound?
The value was 100%.

And the “healing of the corneal defect wound as compared with the vehicle administration group” value [6, 8]?
Its value is “a significant healing promoting action was confirmed”.

And the “time after preparation of the defect wound from which the defect portion area rapidly decreased” value ([6]; SD rat, 1% ointment four times a day, vehicle apparent healing started on Day 2)?
The value was 8 h.

And the “migration of the epidermic cells (wound confluence)” value [7]?
The value was “promoted migration of the epidermic cells via the skin fibroblasts”.

Which “healing promoting action as compared with the vehicle administration group (area of defect portions)” value [3] does the source give for `N#Cc1ccc(Oc2ccc3c(c2)COB3O)cc1` [crisaborole, reference compound] here?
The value was “a significant healing promoting action was not observed”.

And the “course of the area of the defect portions (start of healing)” value [3]?
Its value is “increased on the second day (in the 2% group) and then gradually decreased from the fourth day”.

And the “oral ulcer area on Day 8” value [5]?
Its value is 18.3±2.7 mm^2.

And the “reduction in the oral ulcer area as compared with the vehicle administration group” value [5]?
Its value is “significant reduction in the oral ulcer area was not observed”.

What about the “wound area healing rate on Day 2” value [6] of the same compound?
The value was 81.6%.

And the “healing of the corneal defect wound as compared with the vehicle administration group” value [6, 8]?
Its value is “healing was not completed”.
